Here are results for 21 compounds from US20240025875A1, “A COMPOUND AS A THYROID HORMONE BETA RECEPTOR AGONIST AND USE THEREOF” (SUNSHINE LAKE PHARMA CO., LTD., priority 2020, published 2024).

One assay concerns the target T1, TRβ (Homo sapiens, UniProt P10828).
T1 construct: 5 μL of 4×TR beta/alfa-LBD; purchased Invitrogen PV4686
T1 sequence (P10828 217-461 limits assumed): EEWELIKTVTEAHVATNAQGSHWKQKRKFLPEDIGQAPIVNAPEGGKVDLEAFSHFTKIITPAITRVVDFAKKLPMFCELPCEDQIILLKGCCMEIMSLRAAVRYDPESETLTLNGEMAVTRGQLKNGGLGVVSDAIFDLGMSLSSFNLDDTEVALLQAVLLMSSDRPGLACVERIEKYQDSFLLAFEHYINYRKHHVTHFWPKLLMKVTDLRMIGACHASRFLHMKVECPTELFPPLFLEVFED
Nature of the assay: LanthaScreen TR-FRET Thyroid Receptor beta Coactivator Assay (in vitro binding activity). As to conditions: TR beta-LBD. On the procedure:
(§1) 2. Detection of the Binding Activity of the Compound of the Present Invention to TRα or TRβ In Vitro
(§2) Test Materials • LanthaScreen TR-FRET Thyroid Receptor beta Coactivator Assay kit was purchased from Invitrogen, Cat. No. PV4686; • LanthaScreen TR-FRET Thyroid Receptor alfa Coactivator Assay kit was purchased from Invitrogen, Cat. No. PV4687.
(§3) The method was experimented with LanthaScreen TR-FRET Thyroid Receptor beta/alfa Coactivator Assay kit. The test compound was dissolved in DMSO and diluted 3 times to a total of 10 concentrations, and then diluted with TR-FRET Coregulator Buffer C in the kit to form a solution containing 2% DMSO, 10 μL of the solution containing 2% DMSO was taken into a 384-well plate, then 5 μL of 4×TR beta/alfa-LBD, 5 μL of a mixture containing 0.4 μM fluorescein-SRC2-2 and 8 nM Tb anti-GST antibody were added into each well, mixed thoroughly, and incubated at room temperature for 1 h in the dark. After 1 h, BMG LABTECH's PHERAstar FSX microplate reader was used to read the fluorescence value (RFU) at […]. The TR-FRET ratio was calculated by dividing the emission signal at 520 nm by the emission signal at 495 nm. Graph Pad Prism 5 software was used to draw the curve and calculate the EC50 value. The in vitro binding activity test results of some of the compounds of the examples of the present invention are shown in Table 1 below.
Background: TR-FRET usually uses a lanthanide donor and a delayed reading to cut background.

The next assay concerns the target T2, TRα (Homo sapiens, UniProt P10827).
T2 construct: 5 μL of 4×TR beta/alfa-LBD; purchased Invitrogen PV4687
Nature of the assay: LanthaScreen TR-FRET Thyroid Receptor alfa Coactivator Assay (in vitro binding activity). As to conditions: TR alfa-LBD. On the procedure: as §1, §2, §3

T2 sequence (P10827 163-410 isoform P10827-2 limits assumed, other chains not shown): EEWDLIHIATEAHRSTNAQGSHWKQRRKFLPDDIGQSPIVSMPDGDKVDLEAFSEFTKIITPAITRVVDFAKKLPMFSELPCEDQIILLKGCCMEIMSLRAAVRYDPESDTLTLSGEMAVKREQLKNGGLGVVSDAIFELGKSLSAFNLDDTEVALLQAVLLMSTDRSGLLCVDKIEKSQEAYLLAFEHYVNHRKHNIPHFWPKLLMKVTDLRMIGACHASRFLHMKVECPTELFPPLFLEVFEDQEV

The EC50 is the concentration needed to bring the measured effect to its halfway point. A high value points to a need for much substance. Regarding `COc1cccc(CN2CCc3cc(Oc4c(Cl)cc(-n5ncc(=O)[nH]c5=O)cc4Cl)ccc3C2=O)c1` [Example 36, 2-(3,5-dichloro-4-((2-(3-methoxybenzyl)-1-oxo-1,2,3,4-tetrahydroisoquinolin-6-yl)oxy)phenyl)-1,2,4-triazine-3,5(2H,4H)-dione], the results for the EC50 on TRβ and on TRα were below 0.0046 µM and 0.079 µM, respectively.
The corresponding values for `N#Cc1nn(-c2cc(Cl)c(Oc3ccc4c(c3)CCN(CO)C4=O)c(Cl)c2)c(=O)[nH]c1=O` [Example 39, 2-(3,5-dichloro-4-((2-(hydroxymethyl)-1-oxo-1,2,3,4-tetrahydroisoquinolin-6-yl)oxy)phenyl)-3,5-dioxo-2,3,4,5-tetrahydro-1,2,4-triazine-6-carbonitrile] are 0.472 µM and above 100 µM.
The corresponding values for `N#Cc1nn(-c2cc(Cl)c(Oc3ccc4c(c3)CCN(Cc3ccc(F)c(F)c3)C4=O)c(Cl)c2)c(=O)[nH]c1=O` [Example 30d, 2-(3,5-dichloro-4-((2-(3,4-difluorobenzyl)-1-oxo-1,2,3,4-tetrahydroisoquinolin-6-yl)oxy)phenyl)-3,5-dioxo-2,3,4,5-tetrahydro-1,2,4-triazine-6-carbonitrile] are 0.065 µM and above 100 µM.
The corresponding values for `N#Cc1nn(-c2cc(Cl)c(Oc3ccc4c(c3)CCN(Cc3ccc(F)cc3)C4=O)c(Cl)c2)c(=O)[nH]c1=O` [Example 20d, 2-(3,5-dichloro-4-((2-(4-fluorobenzyl)-1-oxo-1,2,3,4-tetrahydroisoquinolin-6-yl)oxy)phenyl)-3,5-dioxo-2,3,4,5-tetrahydro-1,2,4-triazine-6-carbonitrile] are 0.534 µM and above 100 µM.
Take `O=C1c2ccc(Oc3c(Cl)cc(-n4ncc(=O)[nH]c4=O)cc3Cl)cc2CCN1Cc1ccc(F)c(F)c1` [Example 30, 2-(3,5-dichloro-4-((2-(3,4-difluorobenzyl)-1-oxo-1,2,3,4-tetrahydroisoquinolin-6-yl)oxy)phenyl)-1,2,4-triazine-3,5(2H,4H)-dione]: the values for the EC50 at TRβ and on TRα were 0.0062 µM and 0.093 µM, respectively.
On to `O=C1c2ccc(Oc3c(Cl)cc(-n4ncc(=O)[nH]c4=O)cc3Cl)cc2CCN1Cc1ccccc1` [Example 22, 2-(4-((2-benzyl-1-oxo-1,2,3,4-tetrahydroisoquinolin-6-yl)oxy)-3,5-dichlorophenyl)-1,2,4-triazine-3,5(2H,4H)-dione], for which the EC50 was found to be 0.011 µM at TRβ and 0.156 µM at TRα.
With `O=C1NCCc2cc(Oc3c(Cl)cc(-n4ncc(=O)[nH]c4=O)cc3Cl)ccc21` [Example 17, 2-(3,5-Dichloro-4-((1-oxo-1,2,3,4-tetrahydroisoquinolin-6-yl)oxy)phenyl)-1,2,4-triazine-3,5(2H,4H)-dione], the EC50 came to 0.034 µM at TRβ and 0.311 µM at TRα.
Take `N#Cc1nn(-c2cc(Cl)c(Oc3ccc4c(c3)CCN(c3ccccn3)C4=O)c(Cl)c2)c(=O)[nH]c1=O` [Example 47f, 2-(3,5-dichloro-4-((1-oxo-2-(pyridin-2-yl)-1,2,3,4-tetrahydroisoquinolin-6-yl)oxy)phenyl)-3,5-dioxo-2,3,4,5-tetrahydro-1,2,4-triazine-6-carbonitrile]: the EC50 is 0.214 µM on TRβ and above 100 µM at TRα.
The corresponding values for `N#Cc1nn(-c2cc(Cl)c(Oc3ccc4c(c3)CCN(COCC(F)(F)F)C4=O)c(Cl)c2)c(=O)[nH]c1=O` [Example 14, 2-(3,5-Dichloro-4-((1-oxo-2-((2,2,2-trifluoroethoxy)methyl)-1,2,3,4-tetrahydroisoquinolin-6-yl)oxy)phenyl)-3,5-dioxo-2,3,4,5-tetrahydro-1,2,4-triazine-6-carbonitrile] are 0.03 µM and 0.226 µM.
In the same order, the values of `COCCN1CCc2cc(Oc3c(Cl)cc(-n4nc(C#N)c(=O)[nH]c4=O)cc3Cl)ccc2C1=O` [Example 10, 2-(3,5-Dichloro-4-((2-(2-methoxyethyl)-1-oxo-1,2,3,4-tetrahydroisoquinolin-6-yl)oxy)phenyl)-3,5-dioxo-2,3,4,5-tetrahydro-1,2,4-triazine-6-carbonitrile] are 0.049 µM and 0.206 µM.
In the same order, the values of `N#Cc1nn(-c2cc(Cl)c(Oc3ccc4c(=O)[nH]ccc4c3)c(Cl)c2)c(=O)[nH]c1=O` [Example 19, 2-(3,5-Dichloro-4-((1-oxo-1,2-dihydroisoquinolin-6-yl)oxy)phenyl)-3,5-dioxo-2,3,4,5-tetrahydro-1,2,4-triazine-6-carbonitrile] are 0.501 µM and above 100 µM.
As for `O=C1c2ccc(Oc3c(Cl)cc(-n4ncc(=O)[nH]c4=O)cc3Cl)cc2CCN1c1ncccn1` [Example 50, 2-(3,5-dichloro-4-((1-oxo-2-(pyrimidin-2-yl)-1,2,3,4-tetrahydroisoquinolin-6-yl)oxy)phenyl)-1,2,4-triazine-3,5(2H,4H)-dione], the results for the EC50 at TRβ and at TRα were 0.12 µM and 0.274 µM, respectively.
In the same order, the values of `Cc1cc(-n2nc(C#N)c(=O)[nH]c2=O)cc(C)c1Oc1ccc2c(c1)CCNC2=O` [Example 26, 2-(3,5-dimethyl-4-((1-oxo-1,2,3,4-tetrahydroisoquinolin-6-yl)oxy)phenyl)-3,5-dioxo-2,3,4,5-tetrahydro-1,2,4-triazine-6-carbonitrile] are 0.476 µM and 7.04 µM.
The corresponding values for `CCN1CCc2cc(Oc3c(Cl)cc(-n4nc(C#N)c(=O)[nH]c4=O)cc3Cl)ccc2C1=O` [Example 5, 2-(3,5-dichloro-4-((2-ethyl-1-oxo-1,2,3,4-tetrahydroisoquinolin-6-yl)oxy)phenyl)-3,5-dioxo-2,3,4,5-tetrahydro-1,2,4-triazine-6-carbonitrile] are 0.014 µM and 0.074 µM.
Regarding `N#Cc1nn(-c2cc(Cl)c(Oc3ccc4c(c3)NC(=O)CC4)c(Cl)c2)c(=O)[nH]c1=O` [Example 8, 2-(3,5-dichloro-4-((2-oxo-1,2,3,4-tetrahydroquinolin-7-yl)oxy)phenyl)-3,5-dioxo-2,3,4,5-tetrahydro-1,2,4-triazine-6-carbonitrile], the EC50 on TRβ was above 10 µM; on TRα, above 100 µM.
The corresponding values for `N#Cc1nn(-c2cc(Cl)c(Oc3ccc4c(c3)CCN(Cc3cccc(F)c3)C4=O)c(Cl)c2)c(=O)[nH]c1=O` [Example 31d, 2-(3,5-dichloro-4-((2-(3-fluorobenzyl)-1-oxo-1,2,3,4-tetrahydroisoquinolin-6-yl)oxy)phenyl)-3,5-dioxo-2,3,4,5-tetrahydro-1,2,4-triazine-6-carbonitrile] are 0.034 µM and above 100 µM.
In the case of `Cc1ccc(F)cc1CN1CCc2cc(Oc3c(Cl)cc(-n4ncc(=O)[nH]c4=O)cc3Cl)ccc2C1=O` [Example 40, 2-(3,5-dichloro-4-((2-(5-fluoro-2-methylbenzyl)-1-oxo-1,2,3,4-tetrahydroisoquinolin-6-yl)oxy)phenyl)-1,2,4-triazine-3,5(2H,4H)-dione], the EC50 on TRβ is below 0.0046 µM; at TRα, 0.179 µM.
As for `O=C1c2ccc(Oc3c(Cl)cc(-n4ncc(=O)[nH]c4=O)cc3Cl)cc2CCN1Cc1ccc(F)c(Cl)c1` [Example 35, 2-(3,5-dichloro-4-((2-(3-chloro-4-fluorobenzyl)-1-oxo-1,2,3,4-tetrahydroisoquinolin-6-yl)oxy)phenyl)-1,2,4-triazine-3,5(2H,4H)-dione], the EC50 on TRβ was below 0.0046 µM; on TRα, 0.092 µM.
In the same order, the values of `N#Cc1nn(-c2cc(Cl)c(Oc3ccc4c(c3)C(=O)NCC4)c(Cl)c2)c(=O)[nH]c1=O` [Example 9, 2-(3,5-dichloro-4-((1-oxo-1,2,3,4-tetrahydroisoquinolin-7-yl)oxy)phenyl)-3,5-dioxo-2,3,4,5-tetrahydro-1,2,4-triazine-6-carbonitrile] are above 10 µM and above 100 µM.
As for `N#Cc1nn(-c2cc(Cl)c(Oc3ccc4c(c3)CCN(c3ncccn3)C4=O)c(Cl)c2)c(=O)[nH]c1=O` [Example 50f, 2-(3,5-dichloro-4-((1-oxo-2-(pyrimidin-2-yl)-1,2,3,4-tetrahydroisoquinolin-6-yl)oxy)phenyl)-3,5-dioxo-2,3,4,5-tetrahydro-1,2,4-triazine-6-carbonitrile], the EC50 on TRβ is 0.213 µM; at TRα, 2.62 µM.
For the compound `Cc1ccc(F)cc1CN1CCc2cc(Oc3c(Cl)cc(-n4nc(C#N)c(=O)[nH]c4=O)cc3Cl)ccc2C1=O` [Example 40d, 2-(3,5-dichloro-4-((2-(5-fluoro-2-methylbenzyl)-1-oxo-1,2,3,4-tetrahydroisoquinolin-6-yl)oxy)phenyl)-3,5-dioxo-2,3,4,5-tetrahydro-1,2,4-triazine-6-carbonitrile], the EC50 on TRβ is 0.035 µM; on TRα it was above 100 µM.
